A value given as a limit tells only on which side of the number the result lay.

Assay [1] has as its target T1, HCV polymerase (Hepatitis C virus genotype 1b, UniProt Q9WMX2).
T1 construct: (His)6 (C)
Put plainly: biochemical. The following applies: polymerase assay of Biological Example 1; read-out: NS5B polymerase IC50.

The subject of assay [2] is HCV replicon I389luc-ubi-neo/NS3-3'/ET in ET (Huh-lucubineo-ET) cells. As to the kind of experiment: Replicon assay (Biological Example 2), luciferase read-out. In kind it is cell-based. Particulars: Hepatitis C virus, luciferase activity 48 hours after compound addition. A digest of the protocol: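 ET cells stably carry the replicon with adaptive mutations E1202G, […] and K1846T. Compound is added 24 h after plating at 0.1 nM–50 μM final (10-point, 3-fold dilutions) with 0.5% DMSO, and luciferase is read 48 h later. EC50 comes from a Hill-equation fit of % inhibition versus no-compound control.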

As to `CNC(=O)c1c(-c2ccc(C3CC3)cc2)oc2nc(N(CCCC3CCCS3(=O)=O)S(C)(=O)=O)c(C3CC3)cc12` (stereo not shown) [Example 25.4, 5-Cyclopropyl-2-(4-cyclopropyl-phenyl)-6-{[3-(1,1-dioxo-tetrahydro-thiophen-2-yl)-propyl]-methanesulfonyl-amino}-furo[2,3-b]pyridine-3-carboxylic acid methylamide], the results for the IC50 in assay [1] and in assay [2] were 1 nM and at most 100 nM, respectively.

In the case of `CCc1cc2c(C(=O)NC)c(-c3ccc(F)cc3)oc2nc1N(Cc1cccc(C#N)c1)S(C)(=O)=O` [Example 21.99, 6-(N-(3-cyanobenzyl)methylsulfonamido)-5-ethyl-2-(4-fluorophenyl)-N-methylfuro[2,3-b]pyridine-3-carboxamide], the IC50 (as a rule, the concentration that inhibits the measured activity by half) in assay [1] is 4540 nM; in assay [2], at least 5000 nM.

For `CNC(=O)c1c(-c2ccc(F)cc2)oc2nc(N(CCCC(=O)NS(C)(=O)=O)S(C)(=O)=O)c(I)cc12` [Example 18.96, 2-(4-fluorophenyl)-5-iodo-N-methyl-6-(N-(4-(methylsulfonamido)-4-oxobutyl)methylsulfonamido)furo[2,3-b]pyridine-3-carboxamide], the IC50 in assay [1] is 34 nM; in assay [2], at least 5000 nM.

On to `CNC(=O)c1c(-c2ccc(Oc3ccccc3)cc2)oc2nc(N(CCCC(C)(C)C(=O)O)S(C)(=O)=O)c(C3CC3)cc12` [Example 27.4, 5-(N-(5-cyclopropyl-3-(methylcarbamoyl)-2-(4-phenoxyphenyl)furo[2,3-b]pyridin-6-yl)methylsulfonamido)-2,2-dimethylpentanoic acid], for which the IC50 in assay [1] is 1 nM; in assay [2] it was at most 100 nM.

For the compound `CNC(=O)c1c(-c2ccc(F)cc2)oc2nc(N(C)S(C)(=O)=O)c(CCCC(=O)NS(C)(=O)=O)cc12` [Example 4.5, 2-(4-fluorophenyl)-N-methyl-6-(N-methylmethylsulfonamido)-5-(4-(methylsulfonamido)-4-oxobutyl)furo[2,3-b]pyridine-3-carboxamide], the half-inhibitory concentration (IC50) was 206 nM in assay [1] and at least 5000 nM in assay [2].
